Test results reported in PubChem BioAssay AID1963965 (Molecular Pharmacology Branch, DTP, NCI, 2024).

Test system: 996289-038-R-J1-PDC spheroid viability
Assay: Anticancer human tumor 996289-038-R-J1-PDC patient-derived colon adenocarcinoma cell line growth inhibition [PI3K]
Settings: spheroids with HUVEC and MSC; for viability, T/C: stronger effect = lower value
Excerpt: Combinatorial screen of targeted agents with the PI3K inhibitors inavolisib, alpelisib, duvelisib, and copanlisib in multi-cell type tumor spheroids
A high-throughput screen of multi-cell type tumor spheroids was designed to identify active combinations of targeted small molecules and PI3K pathway inhibitors. Complex spheroids include a stromal component modeled by human endothelial cells (HUVEC) and fibroblasts modeled by human mesenchymal stem cells (MSCs). The concentration ranges selected for each drug and investigational agent were based upon clinically achievable concentrations if the clinical Cmax of the agent was known.
Compounds. The drugs and investigational agents: inavolisib (NSC800729), alpelisib (NSC765974), duvelisib (NSC772469), copanlisib (NSC816437), ipatasertib (NSC767898), afuresertib (NSC778305), talazoparib (NSC767125), sapanisertib (NSC764658), selumetinib (NSC741078), tovorafenib (DAY101, NSC766906), vemurafenib (NSC761431), ravoxertinib (NSC781343), sotorasib (NSC818433), MRTX1133 (NSC 836407), abemaciclib (NSC 768073), palbociclib (NSC758247), venetoclax (NSC 766270), SY5609 (NSC837396), enzalutamide (NSC755605), and darolutamide (NSC825331), were obtained from the National Cancer Institute (NCI) Developmental Therapeutics Program Chemical Repository. The FDA-approved anticancer drug set is available from the NCI Developmental Therapeutics Program. […] The stock solutions were prepared in dimethyl sulfoxide (DMSO, Sigma-Aldrich, St. Louis, MO, cat. D2650) at 800-fold the tested concentration and stored at -70 degrees C prior to their use. All drugs and investigational agents were tested over a range starting from a high concentration at or near the clinical Cmax and decreasing in half-log increments. If the clinical Cmax for an agent had not been determined, the highest concentration tested was 10 microM.
Cell Culture. All cells were maintained in an incubator at 37 degrees C and 5% CO2 with 95% humidity. The PDC lines were cultured according to standard operating procedures established by the NCI PDMR (https://pdmr.cancer.gov/sops/default.htm). All PDCs were thawed and cultured in Matrigel-coated flasks prepared with a working solution of 1X Ham's F-12 nutrient mix, without supplementation (Invitrogen, Waltham, MA, cat. 11765054), 100 U/mL penicillin-streptomycin (Invitrogen, cat. 15140122), and 2.5% Matrigel (Corning Inc., Corning, NY, cat. 354248) for the first three passages. The 354836-022-R-J1-PDC, 475296-252-R-J1-PDC, and 997726-040-R-J2-PDC lines were cultured in 6A media, which includes advanced DMEM/F-12 (Thermo Fisher Scientific, cat. 12634028), 10 mM HEPES (Thermo Fisher Scientific, cat. 15630080), 1X GlutaMAX supplement (Thermo Fisher Scientific, cat. 35050061), 0.1 mg/mL primocin (InvivoGen, San Diego, CA, cat. ant-pm-2), 10% defined fetal bovine serum, heat inactivated (HyClone Laboratories Inc., Logan, UT, cat. SH30070.03HI), 50% L-WRN conditioned media (ATCC, cat. CRL-3276), 1.25 mM N-Acetyl-L-cysteine (Sigma-Aldrich, cat. A9165), 10 mM nicotinamide (Sigma-Aldrich, cat. N0636), 1X B-27 supplement (Thermo Fisher Scientific, cat. 17504044), 1X N-2 supplement (Thermo Fisher Scientific, cat. 17502048), and 10 microM Y-27632 dihydrochloride (Tocris Bioscience, Bristol, United Kingdom, cat. 1254). The 624824-186-R-J2-PDC line was cultured in 6C/Colon 1B media, which includes all 6A media components plus 50 ng/mL human EGF recombinant protein (Thermo Fisher Scientific, cat. PHG0311). […]
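Also: spheroids exposed to compounds for seven days before viability read.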
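For viability, T/C in this document: luminescence used as a proxy for viable cell amount; percent viability relative to DMSO vehicle control as 100%.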

With CC(Nc1ncnc2nc[nH]c12)c1cc2cccc(Cl)c2c(=O)n1-c1ccccc1 (stereo not drawn) the viability, T/C (compound 0.0316 µM) was 99.9% [middle of 8 runs], the viability, T/C (compound 0.1 µM) was 98% [middle of 8 runs] and the viability, T/C (compound 0.316 µM) was 97.6% [middle of 8 runs]. For the same compound, the viability, T/C (compound 3.16 µM) was 89.2% [middle of 8 runs], the viability, T/C (compound 10 µM) was 95.7% [middle of 8 runs] and the IC50 (compound alone, run of 06/13/2023) was greater than 10 µM.

Compound CCCS(=O)(=O)Nc1ccc(F)c(C(=O)c2c[nH]c3ncc(-c4ccc(Cl)cc4)cc23)c1F + CC(Nc1ccc2c(c1)OCCn1cc(N3C(=O)OCC3C(F)F)nc1-2)C(N)=O has an IC50 (curve of first compound, second compound 0.00316 µM) of 5.89 µM, an IC50 (curve of first compound, second compound 0.01 µM) of 6.12 µM and an IC50 (curve of first compound, second compound 0.0316 µM) of 5.81 µM. For the same compound, the IC50 (curve of first compound, second compound 0.1 µM) was 5.11 µM, the IC50 (curve of first compound, second compound 0.316 µM) was 4.38 µM and the IC50 (curve of first compound, second compound 1 µM) was 1.67 µM. For the same compound, the viability, T/C (second compound 0.00316 µM, first compound 0.0316 µM) was 108%, the viability, T/C (second compound 0.00316 µM, first compound 0.1 µM) was 89.7% and the viability, T/C (second compound 0.00316 µM, first compound 0.316 µM) was 86.3%. For the same compound, the viability, T/C (second compound 0.00316 µM, first compound 1 µM) was 96.7%, the viability, T/C (second compound 0.00316 µM, first compound 3.16 µM) was 83.4% and the viability, T/C (second compound 0.00316 µM, first compound 10 µM) was 21.2%. The viability, T/C (second compound 0.01 µM, first compound 0.0316 µM) was 101%, the viability, T/C (second compound 0.01 µM, first compound 0.1 µM) was 95.8% and the viability, T/C (second compound 0.01 µM, first compound 0.316 µM) was 97.8%. The viability, T/C (second compound 0.01 µM, first compound 1 µM) was 101%, the viability, T/C (second compound 0.01 µM, first compound 3.16 µM) was 88% and the viability, T/C (second compound 0.01 µM, first compound 10 µM) was 21.4%. For the same compound, the viability, T/C (second compound 0.0316 µM, first compound 0.0316 µM) was 95%, the viability, T/C (second compound 0.0316 µM, first compound 0.1 µM) was 98.5% and the viability, T/C (second compound 0.0316 µM, first compound 0.316 µM) was 96.6%. For the same compound, the viability, T/C (second compound 0.0316 µM, first compound 1 µM) was 99.4%, the viability, T/C (second compound 0.0316 µM, first compound 3.16 µM) was 82.5% and the viability, T/C (second compound 0.0316 µM, first compound 10 µM) was 20.6%. The viability, T/C (second compound 0.1 µM, first compound 0.0316 µM) was 72.4%, the viability, T/C (second compound 0.1 µM, first compound 0.1 µM) was 71.8% and the viability, T/C (second compound 0.1 µM, first compound 0.316 µM) was 74.6%. The viability, T/C (second compound 0.1 µM, first compound 1 µM) was 73.4%, the viability, T/C (second compound 0.1 µM, first compound 3.16 µM) was 75.8% and the viability, T/C (second compound 0.1 µM, first compound 10 µM) was 16.9%. The viability, T/C (second compound 0.316 µM, first compound 0.0316 µM) was 74.8%, the viability, T/C (second compound 0.316 µM, first compound 0.1 µM) was 74.3% and the viability, T/C (second compound 0.316 µM, first compound 0.316 µM) was 76.6%. It also gave a viability, T/C (second compound 0.316 µM, first compound 1 µM) of 68%, a viability, T/C (second compound 0.316 µM, first compound 3.16 µM) of 65.1% and a viability, T/C (second compound 0.316 µM, first compound 10 µM) of 15.1%. It also gave a viability, T/C (second compound 1 µM, first compound 0.0316 µM) of 63.1%, a viability, T/C (second compound 1 µM, first compound 0.1 µM) of 72.3% and a viability, T/C (second compound 1 µM, first compound 0.316 µM) of 61.7%. It also gave a viability, T/C (second compound 1 µM, first compound 1 µM) of 52.1%, a viability, T/C (second compound 1 µM, first compound 3.16 µM) of 44.9% and a viability, T/C (second compound 1 µM, first compound 10 µM) of 12.1%.
